Experiments:
Assay type in all cases: cell-based, human
PATU-8902 = experiment: cell cycle analysis (PI staining); conditions: IC90, 24 and 48 h (Figure 19b)
Description: (§1) The potent cytotoxicity and the potential to inhibit the proliferation of cancer cells accompanied by DNA damage effects raised the question as to whether cell cycle progression might be affected as a result of treatment with pentathiepins.
(§2) Cells were harvested by trypsinization, collected in 1.5 mL tubes, and washed twice with PBS by centrifuging for 5 min at 500× g and discarding the supernatant after every step. For fixation, 500 µL of ice-cold ethanol (70%) was added dropwise under vortexing with a subsequent incubation on ice for 30 min. Then, the cells were centrifuged for 10 min at 4000 rpm and 4 °C, the supernatant was removed, and the cells were resuspended in 500 µL of PBS containing 25 µg/mL of PI and 100 µg/mL of RNase. The staining solution was incubated for 30 min, and the cell suspension was measured at λEx/Em = 488/655–730 nm using a MACSquant Analyzer 10 (Miltenyi Biotec, Teterow, Germany).

YAPC = experiment: cell cycle analysis (PI staining); conditions: IC90, 24 and 48 h (Figure 19c)
Description: as §1, §2

Siso = experiment: annexin V-FITC/PI apoptosis assay; conditions: IC90, 24 h
Description: (§3) As reported in our earlier publication, a representative pentathiepin was capable of inducing apoptosis in cancer cell lines. Here, we tested compounds 1–6 for their ability to trigger this particular modality of cell death in a subset of four cell lines: HAP-1, HAP-1.KO.GPx1, A2780, and Siso. A flow cytometric assay was performed, allowing us to discriminate between viable, early, and late apoptotic cells (representative dot plots can be found in Figure S47). FITC-labeled annexin V was used to assess the externalization of phosphatidyl serine as a hallmark of early apoptosis induction. The addition of propidium iodide (PI) enabled the detection of late apoptotic cells as it only permeates porous cell membranes and exerts fluorescence once bound to double-stranded DNA.
(§4) The annexin V-FITC/PI assay, which discriminates between viable, early, and late apoptotic cells within a sample population, was performed according to the manufacturer’s instructions (Miltenyi Biotec, Teterow, Germany). Briefly, 125,000 cells were seeded in 2 mL per well of a 6-well plate, allowed to adhere overnight, and subsequently treated with the respective pentathiepin (IC90, see Table S4) diluted in 3 mL of medium. After incubation periods of 6, 24, or 48 h, the cells were harvested, washed with the provided binding buffer, and stained with the annexin V-FITC reagent for 20 min at room temperature (RT) in the dark. After another washing step, the pellet was resuspended, and PI was added immediately before flow cytometric measurement at λEx/Em = 488/525 ± 50 nm for FITC and λEx/Em = 488/655–730 nm for PI with the MACSquant Analyzer 10 (Miltenyi Biotec, Teterow, Germany).

HAP-1 = experiment: annexin V-FITC/PI apoptosis assay; conditions: IC90, 24 h
Description: as §3, §4

HAP-1.KO.GPx1 = experiment: annexin V-FITC/PI apoptosis assay; conditions: for early apoptotic cells: pentathiepins IC90, doxorubicin 0.5 µM, 24 h
Description: as §3, §4

PARP1 in HAP-1.KO.GPx1 = experiment: Western blot of cleaved PARP1; conditions: pentathiepins IC90, doxorubicin 0.5 µM, 24 h
Description: (§5) In addition to general flow cytometric and microscopic analyses, Western blotting was performed to detect the apoptosis-relevant protein PARP1 (poly(ADP-ribose) polymerase 1) and its cleavage fragment (Figure 17 and Figures S29–S34). Full-length PARP1 (116 kDa) is involved in DNA repair, and a cleavage by caspases (fragment sizes 24 and 89 kDa) caused by caspase-3 and -7 is a hallmark of late apoptosis.
(§6) All detected specific bands were normalized to the total protein load per lane by the TGX stain-free gel system from Bio-Rad.
(§7) All Western blot analyses were performed with reagents, material, and devices purchased from Bio-Rad (Feldkirchen, Germany) if not stated otherwise. To obtain protein lysates, we seeded cells and treated them as described for the other methods. […] Cells were harvested by trypsinization and centrifugation for 5 min at 500× g. After a washing step with PBS, the cell pellet was resuspended in lysis buffer (Tris 50 mM (pH 7.4), 100 mM NaCl, 100 mM NaF, 5 mM EDTA, 0.2 mM Na3VO4, 0.1% Triton-X, and 1% protease inhibitor cocktail added immediately before use). Lysis was supported by incubating the samples for 10 min in an ultrasonic bath before centrifuging for 10 min at 18,000 × g and 4 °C. Protein quantification was performed via the Bradford method using ROTI®nanoquant reagent (Carl Roth GmbH, Karlsruhe, Germany) and bovine serum albumin as calibration standard. For electrophoretic separation, 15–40 µg of protein was loaded per well of a polyacrylamide gel (Mini- or Midi-Protean® TGX stain-free gel, Bio-Rad, Feldkirchen, Germany), and subsequent blotting was performed with Trans-Blot®Turbo™TransferPack Mini or Midi PVDF membranes from Bio-Rad (Feldkirchen, Germany). The membranes were blocked with a 10% non-fat milk powder solution in Tris-buffered saline (TBS; 2.42 g/L Tris, 8.48 g/L NaCl in water) plus 0.5% Tween-20 (TBST) for 1 h at RT. Incubation with primary antibodies took place over night at 4 °C in a 1:1000 dilution in TBST containing BSA (1%). The secondary antibodies conjugated to horse-radish peroxidase were diluted 1:10,000 in TBST and 1% BSA, and incubated for 4 h at RT. A detection step followed, applying Clarity™Western ECL substrate with subsequent imaging via the INTAS Advanced Fluorescence Imager. Between all incubation steps, the blots were washed three times for 10 min with TBST. The bands were quantified with the ImageLab software and normalized using the total protein quantification of the TGX stain-free gel system from Bio-Rad.

PARP1 in A2780 = experiment: Western blot of cleaved PARP1; conditions: IC90, 24 h
Description: as §5, §6, §7

PARP1 in Siso = experiment: Western blot of cleaved PARP1; conditions: IC90, 24 h
Description: as §5, §6, §7

PARP1 in HAP-1 = experiment: Western blot of cleaved PARP1; conditions: pentathiepins IC90, doxorubicin 0.5 µM, 24 h
Description: as §5, §6, §7

| SMILES | increase of S-phase cells (PATU-8902) | increase of G0/G1-phase cells (YAPC) | early apoptotic cells (Siso) | late apoptotic cells (Siso) | late apoptotic cells (HAP-1) | late apoptotic cells (HAP-1.KO.GPx1; IC90, 24 h) [%] | early apoptotic cells (HAP-1.KO.GPx1) [%] | cleaved PARP1 (PARP1 in HAP-1.KO.GPx1) | fraction of 89 kDa PARP1 (PARP1 in A2780) | fraction of 89 kDa PARP1 (PARP1 in Siso) | cleaved PARP1 (PARP1 in HAP-1) |
| --- | --- | --- | --- | --- | --- | --- | --- | --- | --- | --- | --- |
| CCOc1c2c(c3ccc(C(=O)N(CC)CC)cn13)SSSSS2 [Compound 4, 6-Ethoxy-N,N’-diethyl-[1,2,3,4,5]pentathiepino[6,7-a]indolizine-9-carboxamide] | up to 14% | – | – | – | – | – | – | – | – | – | – |
| CCOc1c2c(c3cnc4[nH]c(-c5ccc(OC)cc5)cc4n13)SSSSS2 [Compound 1, 11-Ethoxy-2-(4-methoxyphenyl)-3H-[1,2,3,4,5]pentathiepino[6′,7′:3,4]pyrrolo[1,2-a]pyrrolo[2,3-e]pyrazine] | – | up to 18% | – | – | – | – | – | – | – | – | – |
| CCOc1c2c(c3ccc(C(=O)N4CCOCC4)cn13)SSSSS2 [Compound 3, (6-Ethoxy-[1,2,3,4,5]pentathiepino[6,7-a]indolizin-9-yl)(morpholino)methanone] | up to 14% | – | about 20% | about 20% | up to 12% | 6 | 34 | trends for increased levels | very small and only confirmed after treatment with pentathiepins 3 or 5 | very small and only confirmed after treatment with pentathiepins 3 or 5 | trends for increased levels |
| CCOc1c2c(c3ccc(C(=O)N4CCN(C(=O)c5ccc(F)cc5)CC4)cn13)SSSSS2 [Compound 5, (6-Ethoxy-[1,2,3,4,5]pentathiepino[6,7-a]indolizin-9-yl)(4-(4-fluorobenzoyl)piperazinyl)methanone] | – | – | – | – | – | – | 15 | trends for increased levels | very small and only confirmed after treatment with pentathiepins 3 or 5 | very small and only confirmed after treatment with pentathiepins 3 or 5 | trends for increased levels |
| CCOc1c2c(c3ccc(C(=O)N4CCN(S(=O)(=O)c5ccc(C)cc5)CC4)cn13)SSSSS2 [Compound 6, (6-Ethoxy-[1,2,3,4,5]pentathiepino[6,7-a]indolizin-9-yl)(4-tosylpiperazinyl)methanone] | – | up to 18% | – | – | – | – | – | relevant and significant quantities of cleaved PARP1 | – | – | relevant and significant quantities of cleaved PARP1 |
